The text below walks through data of US10030012B2, “Piperidin-1-yl and azepin-1-yl carboxylates as muscarinic M4 receptor agonists” (Heptares Therapeutics Limited, priority 2013, dated 2018).

In one test the target is human M4 receptor (Homo sapiens (Human), UniProt P08173). In words: In vitro M4 functional assay (intracellular calcium, FLiPR Tetra). In kind it is cell-based. The following applies: for EC50: CHOK1 cells stably expressing human M4 receptor and Gα16, calcium flux; for Emax: relative efficacy to an EC100 concentration of acetylcholine, read-out: M4 % RE. The protocol: (§1) In Vitro M4 &M2 Functional Assay
(§2) The functional activity of compounds at the M4 and M2 receptors was determined by measuring changes in the level of intracellular calcium ions caused by signalling cascades mediated by the receptor. Intracellular Calcium levels were measured using a calcium sensitive fluorescent dye, calcium 5 (Molecular Devices) The changes in fluorescence were monitored by a fluorescent imager, FLiPR Tetra (Molecular devices). Increases in intracellular calcium were readily detected upon activation of both receptors by the muscarinic receptor agonist Acetylcholine.
(§3) CHOK1 cells stably expressing human M4 or M2 receptor and co-expressing the accessory g-protein Gα16 were routinely grown as monolayers in Hams-F12 medium (Invitrogen) supplemented with 10% foetal bovine serum (FBS) (Hyclone), 500 ug/mL Geneticin and 250 ug/mL zeocin (both invitrogen) in 5% CO2 at 37° C. Once confluent is cells cryopreserved by freezing at −186° C. in freezing solution (90% FBS 10% DMSO) (Sigma-Aldrich Co.). Twenty-four hours prior to testing cells resuscitated and freezing media removed via centrifugation, cells then seeded in a black walled clear bottom 384 well plates (Corning) at a density of 15,000 cells/well in Hams F12 media supplemented with 10% FBS. On the day of assay, growth media was removed and replaced with 63 μl of Calcium 5 dye solution (Molecular Devices) in assay buffer (HBSS, 20 mM HEPES, 0.1% BSA, 1 mM Probenecid pH7.4 (Sigma-Aldrich Co.)) per well (each vial of Calcium 5 resuspended in 27 mL of assay buffer). Cells were then incubated for 45 minutes at 37° C., 5% CO2. Compound was serially diluted in DMSO (log/half log) before being diluted 1:20 with assay buffer. 7 μl of compound diluted in assay buffer was then added to cells on FLiPR tetra and fluorescence intensity measured for 5 minutes. EC50 values for compounds were determined from ten point half log scale dose-response studies and represent the concentration of compound required to […] maximal response. Curves were generated using the average of duplicate wells for each data point and analyzed using non-linear regression of four parameter dose response. Percentage Relative efficacy (RE) to an EC100 concentration of acetylcholine was reported for all compounds. The results are set out in Table 3 below in which the term “No Response” means that there was no significant response of calcium flux in the assay indicative of agonism.
(Calcium flux is commonly read through the fluorescence of an indicator in the cells.)

A further test has as its target human M2 receptor (Homo sapiens (Human), UniProt P08172). In words: In vitro M2 functional assay (intracellular calcium, FLiPR Tetra). Type of test: cell-based. The following applies: for M2 EC50 / EC50: CHOK1 cells stably expressing human M2 receptor and Gα16, calcium flux, No Response = no significant response of calcium flux indicative of agonism; for activation at 10 µM: response at 10 μM compound, relative to an EC100 concentration of acetylcholine, read-out: M2 % RE @ 10 μM. How it is done: as §1, §2, §3

Chain of human M2 receptor (P08172 whole entry): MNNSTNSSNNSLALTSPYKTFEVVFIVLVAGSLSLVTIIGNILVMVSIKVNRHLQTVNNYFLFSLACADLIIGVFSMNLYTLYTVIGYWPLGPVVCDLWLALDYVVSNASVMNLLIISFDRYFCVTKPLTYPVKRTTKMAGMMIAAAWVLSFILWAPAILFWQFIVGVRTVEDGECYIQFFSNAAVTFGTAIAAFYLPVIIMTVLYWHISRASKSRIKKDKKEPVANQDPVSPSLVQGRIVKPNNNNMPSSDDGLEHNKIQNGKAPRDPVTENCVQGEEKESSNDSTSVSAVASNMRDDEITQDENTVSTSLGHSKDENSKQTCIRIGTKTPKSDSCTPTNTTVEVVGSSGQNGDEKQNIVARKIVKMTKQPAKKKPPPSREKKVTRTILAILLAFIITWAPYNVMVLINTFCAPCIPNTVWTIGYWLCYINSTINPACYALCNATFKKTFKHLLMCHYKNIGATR
Chain of human M4 receptor (P08173 whole entry): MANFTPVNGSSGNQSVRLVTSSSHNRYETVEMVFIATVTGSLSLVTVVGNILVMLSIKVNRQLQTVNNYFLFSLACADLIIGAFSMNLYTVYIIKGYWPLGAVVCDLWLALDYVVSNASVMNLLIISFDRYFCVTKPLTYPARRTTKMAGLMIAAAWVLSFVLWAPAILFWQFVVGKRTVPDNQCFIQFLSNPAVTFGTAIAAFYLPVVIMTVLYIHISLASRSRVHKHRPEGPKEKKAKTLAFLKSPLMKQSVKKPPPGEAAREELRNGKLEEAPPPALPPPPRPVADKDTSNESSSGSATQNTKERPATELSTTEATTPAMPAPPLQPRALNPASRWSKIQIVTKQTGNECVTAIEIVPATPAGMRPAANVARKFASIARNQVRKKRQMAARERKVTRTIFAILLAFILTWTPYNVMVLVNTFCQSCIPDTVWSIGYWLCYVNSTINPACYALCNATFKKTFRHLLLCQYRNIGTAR

Turning to `CCOC(=O)N1CCCC(N2CCC(c3cccnc3OCc3cscn3)CC2)CC1` (stereo not drawn) [Example 76, Ethyl 4-{4-[2-(1,3-thiazol-4-ylmethoxy)pyridin-3-yl]piperidin-1-yl}azepane-1-carboxylate], at human M4 receptor, the EC50 (in general, the concentration needed to bring the measured effect to its halfway point) is 22 nM and the Emax was found to be 84%. The “M2 EC50” value at human M2 receptor is listed as “No Response”.

For `CCOC(=O)N1CCCC(N2CCC(c3nccn3CC(=O)NC3CC3)CC2)CC1` (stereo not drawn) [Example 19, Ethyl 4-(4-{1-[(cyclopropylcarbamoyl)methyl]-1H-imidazol-2-yl}piperidin-1-yl)azepane-1-carboxylate], on human M4 receptor, the EC50 is 1510 nM and the Emax worked out at 64%. In addition, at human M2 receptor, the “M2 EC50” value is recorded as “No Response”.

As for `CCOC(=O)N1CCCC(N2CCC(c3cccnc3NC)CC2)CC1` (stereo not drawn) [Example 62, Ethyl 4-{4-[2-(methylamino)pyridin-3-yl]piperidin-1-yl}azepane-1-carboxylate], on human M4 receptor, the 50% effective concentration (EC50) is 360 nM and the Emax worked out at 53%. For the same molecule, the “M2 EC50” value on human M2 receptor is recorded as “No Response”.

On to `CCOC(=O)N1CCCC(N2CCC(c3cccnc3OC(F)F)CC2)CC1` (stereo not drawn) [Example 52, Ethyl 4-{4-[2-(difluoromethoxy)pyridin-3-yl]piperidin-1-yl}azepane-1-carboxylate], for which, on human M4 receptor, the EC50 came to 10 nM and the Emax stood at 96%. Besides, at human M2 receptor, the EC50 was above 10000 nM and the activation at 10 µM was 25%.

Consider `CCOC(=O)N1CCCC(N2CCC(c3cc[nH]n3)CC2)CC1` (stereo not drawn) [Example 6, Ethyl 4-[4-(1H-pyrazol-3-yl)piperidin-1yl]azepane-1-carboxylate], for which, at human M4 receptor, the EC50 is 190 nM and the Emax is 53%. Moreover, on human M2 receptor, the “M2 EC50” value was “No Response”.

As to `CCOC(=O)N1CCCC(N2CCC(n3nccc3C(=O)N(C)C)CC2)CC1` (stereo not drawn) [Example 21, Ethyl 4-{4-[5-(dimethylcarbamoyl)-1H-pyrazol-1-yl]piperidin-1-yl}azepane-1-carboxylate], on human M4 receptor, the EC50 amounted to 2680 nM and the Emax came out at 45%. Also, the “M2 EC50” value at human M2 receptor was “No Response”.

Consider `CCOC(=O)N1CCCC(N2CCC(n3nccc3C(F)(F)F)CC2)CC1` (stereo not drawn) [Example 69, Ethyl 4-{4-[5-(trifluoromethyl)-1H-pyrazol-1-yl]piperidin-1-yl}azepane-1-carboxylate], for which, at human M4 receptor, the EC50 was determined as 630 nM and the Emax turned out to be 63%. At human M2 receptor, the half-maximal effective concentration (EC50) is above 10000 nM and the activation at 10 µM was determined as 21%.

For `CCOC(=O)N1CCCC(N2CCC(c3cccnc3OCc3cc(C)no3)CC2)CC1` (stereo not drawn) [Example 54, Ethyl 4-(4-{2-[(3-methyl-1,2-oxazol-5-yl)methoxy]pyridin-3-yl}piperidin-1-yl)azepane-1-carboxylate], on human M4 receptor, the EC50 is 20 nM and the Emax was found to be 94%. For the same molecule, the “M2 EC50” value on human M2 receptor is recorded as “No Response”.

For the molecule `CCOC(=O)N1CCCC(N2CCC(c3nccs3)CC2)CC1` (stereo not drawn) [Example 26, Ethyl 4-[4-(1,3-thiazol-2-yl)piperidin-1-yl]azepane-1-carboxylate], on human M4 receptor, the EC50 stood at 130 nM and the Emax came out at 51%. Further, on human M2 receptor, the “M2 EC50” value is given as “No Response”.

For the molecule `CCOC(=O)N1CCCC(N2CCC(c3nccn3CC)CC2)CC1` (stereo not drawn) [Example 10, Ethyl 4-[4-(1-ethyl-1H-imidazol-2-yl)piperidin-1-yl]azepane-1-carboxylate], at human M4 receptor, the EC50 stood at 1740 nM and the Emax was 44%. Moreover, the “M2 EC50” value at human M2 receptor is “No Response”.

As for `CCOC(=O)N1CCCC(N2CCC(n3nccc3-c3ccc(Cl)cc3)CC2)CC1` (stereo not drawn) [Example 5, Ethyl 4-{4-[5-(4-chlorophenyl)-1H-pyrazol-1-yl]piperidin-1-yl}azepane-1-carboxylate], at human M4 receptor, the EC50 came to 250 nM and the Emax is 49%. In addition, on human M2 receptor, the concentration giving a half-maximal response (EC50) is above 10000 nM and the activation at 10 µM was 25%.

With `CCOC(=O)N1CCCC(N2CCC(c3cccnc3N(C)C)CC2)CC1` (stereo not drawn) [Example 65, Ethyl 4-{4-[2-(dimethylamino)pyridin-3-yl]piperidin-1-yl}azepane-1-carboxylate], on human M4 receptor, the concentration for a half-maximal effect (EC50) amounted to 190 nM and the Emax worked out at 87%. Moreover, on human M2 receptor, the “M2 EC50” value was “No Response”.

In the case of `CCOC(=O)N1CCCC(N2CCC(c3cccn(C)c3=O)CC2)CC1` (stereo not drawn) [Example 39, Ethyl 4-[4-(1-methyl-2-oxo-1,2-dihydropyridin-3-yl)piperidin-1-yl]azepane-1-carboxylate], on human M4 receptor, the EC50 came out at 740 nM and the Emax was determined as 41%. Further, the “M2 EC50” value on human M2 receptor is on record as “No Response”.

Turning to `CCOC(=O)N1CCC(N2CCC(c3cccnc3C)CC2)CC1` [Example 46, Ethyl 4-[4-(2-methylpyridin-3-yl)piperidin-1-yl]piperidine-1-carboxylate], on human M4 receptor, the EC50 came to 1550 nM and the Emax worked out at 31%. In addition, the “M2 EC50” value at human M2 receptor is given as “No Response”.

In the case of `CCOC(=O)N1CCCC(N2CCC(c3cccnc3-c3cnn(C)c3)CC2)CC1` (stereo not drawn) [Example 73, Ethyl 4-{4-[2-(1-methyl-1H-pyrazol-4-yl)pyridin-3-yl]piperidin-1-yl}azepane-1-carboxylate], on human M4 receptor, the EC50 turned out to be 650 nM and the Emax was found to be 53%. On human M2 receptor, the “M2 EC50” value was “No Response”.

For `CCOC(=O)N1CCCC(N2CCC(c3cc(Cl)cnc3OC)CC2)CC1` (stereo not drawn) [Example 58, Ethyl 4-[4-(5-chloro-2-methoxypyridin-3-yl)piperidin-1-yl]azepane-1-carboxylate], on human M4 receptor, the 50% effective concentration (EC50) worked out at 2 nM and the Emax stood at 95%. Moreover, the “M2 EC50” value on human M2 receptor was “No Response”.

For the molecule `CCOC(=O)N1CCC(CN2CCC(n3nc(C)cc3C)C2)CC1` (stereo not drawn) [Example 79, Ethyl 4-{[3-(3,5-dimethyl-1H-pyrazol-1-yl)pyrrolidin-1-yl]methyl}piperidine-1-carboxylate], on human M4 receptor, the EC50 stood at 340 nM and the Emax was 50%. Besides, the “M2 EC50” value on human M2 receptor is on record as “No Response”.

Regarding `CCOC(=O)N1CCCC(N2CCC(c3nc(C)ncc3OC)CC2)CC1` (stereo not drawn) [Example 63, Ethyl 4-[4-(5-methoxy-2-methylpyrimidin-4-yl)piperidin-1-yl]azepane-1-carboxylate], on human M4 receptor, the EC50 was determined as 560 nM and the Emax was found to be 43%. Moreover, the “M2 EC50” value on human M2 receptor is “No Response”.

As to `CCOC(=O)N1CCCC(N2CCC(c3nnccc3OC)CC2)CC1` (stereo not drawn) [Example 71, Ethyl 4-[4-(4-methoxypyridazin-3-yl)piperidin-1-yl]azepane-1-carboxylate], on human M4 receptor, the 50% effective concentration (EC50) worked out at 1050 nM and the Emax worked out at 45%. Also, the “M2 EC50” value at human M2 receptor is on record as “No Response”.

For the molecule `CCOC(=O)N1CCCC(N2CCC(c3nccn3CC(=O)NC3CCCCC3)CC2)CC1` (stereo not drawn) [Example 2, Ethyl 4-(4-{1-[(cyclohexylcarbamoyl)methyl]-1H-imidazol-2-yl}piperidin-1-yl)azepane-1-carboxylate], at human M4 receptor, the EC50 was found to be 1870 nM and the Emax is 51%. Moreover, the “M2 EC50” value at human M2 receptor was “No Response”.

As for `CCOC(=O)N1CCCC(N2CCC(c3cccc(OC)n3)CC2)CC1` (stereo not drawn) [Example 33, Ethyl 4-[4-(6-methoxypyridin-2-yl)piperidin-1-yl]azepane-1-carboxylate], on human M4 receptor, the concentration giving a half-maximal response (EC50) worked out at 180 nM and the Emax was 61%. Further, the “M2 EC50” value at human M2 receptor is “No Response”.

As for `CCOC(=O)N1CCC[C@H](N2CCC(c3nccn3C)CC2)CC1` [Example 83, Ethyl (4S)-4-[4-(1-methyl-1H-imidazol-2-yl)piperidin-1-yl]azepane-1-carboxylate], at human M4 receptor, the EC50 is 1500 nM and the Emax turned out to be 55%. Moreover, on human M2 receptor, the “M2 EC50” value is given as “No response”.

As for `CCOC(=O)N1CCCC(N2CCC(c3cccnc3CC)CC2)CC1` (stereo not drawn) [Example 70, Ethyl 4-[4-(2-ethylpyridin-3-yl)piperidin-1-yl]azepane-1-carboxylate], at human M4 receptor, the EC50 came out at 210 nM and the Emax stood at 64%. In addition, the “M2 EC50” value on human M2 receptor is reported as “No Response”.

On to `CCOC(=O)N1CCCC(N2CCC(n3nccc3C#N)CC2)CC1` (stereo not drawn) [Example 27, Ethyl 4-[4-(5-cyano-1H-pyrazol-1-yl)piperidin-1-yl]azepane-1-carboxylate], for which, at human M4 receptor, the half-maximal effective concentration (EC50) was 320 nM and the Emax worked out at 55%. Further, the “M2 EC50” value at human M2 receptor is recorded as “No Response”.

For `CCOC(=O)N1CCCC(N2CCC(n3nccc3CNC(C)=O)CC2)CC1` (stereo not drawn) [Example 28, Ethyl 4-{4-[5-(acetamidomethyl)-1H-pyrazol-1-yl]piperidin-1-yl}azepane-1-carboxylate], on human M4 receptor, the concentration giving a half-maximal response (EC50) was found to be 1480 nM and the Emax is 59%. The “M2 EC50” value on human M2 receptor is on record as “No Response”.
